Assay results: patent publication US20240415989A1, “RADIOLABELED COMPOUND, AND PRECURSOR COMPOUND THEREOF, PREPARATION METHOD THEREFOR, AND APPLICATION THEREOF” (priority 2021, published 2024)

How the values were obtained:
[1] = In vitro stability in normal saline (radiochemical purity by TLC); assay type: physicochemical
Experimental: Four EP tubes were taken and marked as numbers (1) to (4) in sequence, in which 0.1 ml of normal saline was added to numbers (1) and (2), respectively, 0.1 ml of fresh human serum diluted 10 times was added to numbers (3) and (4), respectively, and then 1.0 mci of freshly prepared ^68Ga-DOTA-ibandronic acid was added to these 4 tubes, respectively. Numbers (1) and (3) were placed at room temperature (25±2° C.) and numbers (2) and (4) were placed in a 37° C. metal bath for incubation. The radiochemical purity values of numbers (1) to (4) were measured using a thin layer paper chromatography (TLC) at 10 min, 30 min, 1 h, 2 h, 3 h, 4 h, respectively.

[2] = Lipid-water distribution coefficient (n-octanol/deionized water); assay type: physicochemical
Experimental: Three 5 ml centrifuge tubes were taken, and numbered as A-(1), A-(2) and A-(3), respectively. 0.5 ml of n-octanol, 0.485 ml of deionized water and 0.25 ml of freshly prepared ^68Ga-DOTA-ibandronic acid with about 0.5 mci were added to each tube, and the centrifuge tubes were shaken by a vortex mixer for 20 minutes, then centrifuged at 2000 r/min for 5 minutes, from which 0.1 ml of upper liquid (organic phase) was respectively collected into 3 corresponding test tubes (numbered as B-(1), B-(2), B-(3), respectively), and 0.1 ml of lower liquid (aqueous phase) was respectively collected into 3 corresponding test tubes (numbered as C-(1), C-(2), C-(3), respectively). The total radioactivity count of the organic phase and that of the aqueous phase were measured by γ counter, respectively, and the lipid-water distribution coefficient lgP was calculated by formula.

plasma protein = assay type: in vitro ADME; settings: human
Experimental: 1 mL of fresh human plasma anticoagulated with heparin was taken for later use. Three EP tubes were taken and numbered as A-(1), A-(2), and A-(3), and were each added with 0.1 ml of fresh human plasma and 0.25 ml of freshly prepared ^68Ga-DOTA-ibandronic acid with about 0.5 mci. Then they were incubated in a metal bath at 37° C. for 30 minutes. Three 5 ml centrifuge tubes were taken and numbered as B-(1), B-(2), and B-(3). The incubated solutions were transferred to the corresponding centrifuge tubes, respectively. Then 1 ml of 25% trichloroacetic acid solution was added to each centrifuge tube, mixed thoroughly, then centrifuged at 2000 r/min for 5 minutes. The supernatants were respectively collected into 3 corresponding test tubes (numbered as C-(1), C-(2), C-(3), respectively). The centrifugation and supernatant collection were repeated 3 times. The total radioactivity count of the precipitations in the centrifuge tubes and that of the supernatants in the test tubes were measured by a γ counter, respectively, and the plasma protein binding rate (PPB) was calculated.

[3] = test system: PC-3, H1975, MDA-MB-231 bone metastasis models; assay: Therapeutic effect on tumor-bearing mice, free movement pain behavior scoring; assay type: in vivo, nude mice
Experimental: In this experimental example, the therapeutic effects of ^177Lu-DOTA-ibandronic acid of the present disclosure on tumor-bearing mice (PC-3, H1975, MDA-MB-231 bone metastasis models) were investigated. The ^177Lu-DOTA-ibandronic acid used in this experimental example was prepared according to the method of Example 6.
(1) Establishment of tumor-bearing mouse models: 24 SPF male nude mice and 12 SPF female nude mice were taken, and anesthetized with isoflurane. Then the skin around the left knee joint was disinfected, and the left hind limb was bent. An insulin needle (29G needle) was inserted into the tibia vertically from concave point of the articular fossa of the tibia, slowly rotated and inserted into the medullary cavity, to inject 25 μl of cell culture (approximately 2×10^6) of PC-3 (12 males), H1975 (12 males), and MDA-MB-231 (12 females). Then disinfection was carried out, and the holes were sealed with sterile bone wax. The animals were placed on a 37° C. hot-plate for rewarming. After resuscitation, they were returned to the cage and continued to be raised.
(2) Testing of tumor-bearing mouse models: After 4 weeks of inoculation, 36 nude mice were scanned using Micro-CT, respectively.
(3) Methods of different treatments and grouping: The 36 successfully modelled tumor-bearing mice were randomly divided into 4 groups. Among them, 2 groups were injected with ^177Lu-DOTA-ibandronic acid with low and high radioactivity (100 μCi, 500 μCi) into the tail vein, respectively, 3 animals in each group; and the animals in the blank control groups were injected with normal saline, and divided into a small volume group and a large volume group (10 μl, 50 μl), 3 animals in each group.
(4) Detection and results of treatment effect: Free movement pain behavior scoring was carried out on days 0, 7, 14, 21, 28, and 35, and used as the main indicator of bone pain relief in the tumor-bearing mice. At the corresponding time points, the tumor-bearing mice were placed in a transparent smooth flat-bottomed plastic box. […]

[4] = high activity 500 μCi, compared with all groups

SMILES | Radiochemical purity ([1]; 37° C., 10 min) [%] | Radiochemical purity ([1]; 37° C., 30 min) [%] | Radiochemical purity ([1]; 37° C., 1 h) [%] | Radiochemical purity ([1]; 37° C., 2 h) [%] | Radiochemical purity ([1]; 37° C., 3 h) [%] | Radiochemical purity ([1]; 37° C., 4 h) [%] | Radiochemical purity ([1]; room temperature, 10 min) [%] | Radiochemical purity ([1]; room temperature, 30 min) [%] | Radiochemical purity ([1]; room temperature, 1 h) [%] | Radiochemical purity ([1]; room temperature, 2 h) [%] | Radiochemical purity ([1]; room temperature, 3 h) [%] | Radiochemical purity ([1]; room temperature, 4 h) [%] | lipid-water distribution coefficient lgP [2] | plasma protein binding rate (PPB) (plasma protein) [%] | therapeutic efficacy versus control group ([3]; different doses (100 μCi, 500 μCi) versus normal saline) | bone pain relief [3, 4] | survival rate within 5 weeks of administration [3, 4]
CN(CCCCNC(=O)CN1CCN(CC(=O)O)CCN(CC(=O)O)CCN(CC(=O)O)CC1)CCC(O)(P(=O)(O)O)P(=O)(O)O.[68Ga] [^68Ga-DOTA-ibandronic acid] | 99 | 96 | 96 | 92 | 90 | 87 | 98 | 97 | 95 | 95 | 95 | 93 | −2.33 | 81 |  |  | 
CN(CCCCNC(=O)CN1CCN(CC(=O)O)CCN(CC(=O)O)CCN(CC(=O)O)CC1)CCC(O)(P(=O)(O)O)P(=O)(O)O.[177Lu] [^177Lu-DOTA-ibandronic acid] |  |  |  |  |  |  |  |  |  |  |  |  |  |  | higher than that of the corresponding control group | relieved to the greatest extent | relatively highest
